Measured values from patent EP0317956A2, “Anti-tumor prodrugs” (Bristol-Myers Squibb Company, priority 1987, dated 1989).

Experiments:
[1] = tested on: P388 leukemia; assay: In vivo tumor test, i.p. implanted P388 leukemia; set-up: species or system mice; conditions: for Optimum Dose: P388, 10⁶ ascites cells i.p., single i.p. injection of drug, day 1; for Maximum Effect T/C: P388, T/C = median survival time (treated/control) X 100, single i.p. injection day 1, 30 days
Description: (§1) The in vivo tumor tests were performed utilizing methods described in detail in a previous publication (8). The lymphatic leukemias P-388 and L-1210 were used for initial testing of mitomycin and daunomycin derivatives respectively. Selected compounds were tested against subcutaneouly implanted B16 melanoma with treatment administered intravenously. Experimental parameters are shown in the footnotes of the accompanying tables.
(§2) Three murine tumor models were used to evaluate the in-vivo activities of the drugs.

[2] = tested on: B16 melanoma; assay: In vivo tumor test, subcutaneously implanted B16 melanoma; set-up: species or system mice; conditions: for Optimum Dose / Maximum Effect T/C: B16 melanoma s.c., three i.v. injections, days 1, 5 and 9; for Maximum Effect T/C: 60 days; for antitumor activity: subcutaneously implanted B16 melanoma, i.v. days 1, 5 and 9
Description: as §1
Some of the MMC and MMA derivatives were tested for activity against subcutaneously implanted B16 melanoma. In these experiments, the drugs were administered i.v. on days 1,5 and 9 after implantation of the tumor. The cleavable MMC prodrugs, 20 and 21, were about as active as MMC. […] The cleavable prodrugs, 24 - 27, were as active as MMA, with 24 showing slightly greater activity.

[3] = tested on: L1210 leukemia; assay: In vivo tumor test, i.p. implanted L1210 leukemia; set-up: species or system mice; conditions: for Optimum Dose: L1210, 10⁶ ascites cells i.p., single i.p. injection of drug, day 1; for in-vivo activity: L1210, optimal i.p. dose; for Maximum Effect T/C: L1210, T/C = median survival time (treated/control) X 100, single i.p. injection day 1, 30 days
Description: as §1, §2

[4] = Model study: stability and dithiothreitol-induced fragmentation of model benzyl carbamate disulfide; type: physicochemical
From the text: In order to establish that benzyl carbamates with suitably positioned disulfide substituents would undergo fragmentation of the carbamate upon disulfide reduction, model studies were undertaken using p-nitroaniline as a leaving group. The synthesis of the model benzyl carbamate 12 is depicted in Figure 1.
The course of reaction was monitored by uv/vis spectroscopy, in which 14 (λ max 371 nm) was easily distinguished from the starting material 12 (λ max 313nm). […] It was also observed that the release of 14 was slightly faster at 37°C than at room temperature.

Molecule	Optimum Dose [1]	Maximum Effect T/C [1]	Optimum Dose [2]	Maximum Effect T/C [2]	also measured
MMC Benzyl Carbamate Disulfide [Compound 19]	51.2 mg/kg	185			
MMA Benzyl Carbamate Disulfide [Compound 25]	3.2 mg/kg	153	3.2 mg/kg/inj	191	
MMC Benzyl Carbamate Disulfide [Compound 21]	12.8 mg/kg	222	6.4 mg/kg/inj	123	
CO[C@@]12[C@H](COC(N)=O)C3=C(C(=O)C(C)=C(N)C3=O)N1C[C@H]1[C@@H]2N1C(=O)OCc1ccc(SSc2ccccn2)cc1 [Compound 20, MMC Benzyl Carbamate Disulfide]	25.6 mg/kg	353	12.8 mg/kg/inj	145	
COc1cccc2c1C(=O)c1c(O)c3c(c(O)c1C2=O)C[C@@](O)(C(C)=O)C[C@@H]3O[C@H]1C[C@H](NC(=O)OCc2ccccc2)[C@H](O)[C@H](C)O1 [Compound 29, DAU Benzyl Carbamate]					Optimum Dose [3]: 9.0 mg/kg; in-vivo activity [3]: inactive; Maximum Effect T/C [3]: 100
CO[C@@]12[C@H](COC(N)=O)C3=C(C(=O)C(C)=C(N)C3=O)N1C[C@H]1[C@@H]2N1C(=O)OCc1ccccc1SSc1ccccn1 [Compound 18, MMC Benzyl Carbamate Disulfide]	51.2 mg/kg	195			
COC1=C(C)C(=O)C2=C(C1=O)[C@@H](COC(N)=O)[C@@]1(OC)[C@H]3N[C@H]3CN21 [Compound 22, mitomycin A, reference compound]	3.2 mg/kg	180	0.4 mg/kg/inj	182	
MMA Benzyl Carbamate Disulfide [Compound 23]			6.4 mg/kg/inj	124	antitumor activity [2]: little activity
MMA Benzyl Carbamate Disulfide [Compound 27]	12.8 mg/kg	163	9.6 mg/kg/inj	182	
DAU Benzyl Carbamate Disulfide [Compound 30]					Optimum Dose [3]: 3.0 mg/kg; in-vivo activity [3]: inactive; Maximum Effect T/C [3]: 100
MMA Benzyl Carbamate Disulfide [Compound 26]	3.2 mg/kg	163	3.2 mg/kg/inj	182	
COc1cccc2c1C(=O)c1c(O)c3c(c(O)c1C2=O)C[C@@](O)(C(C)=O)C[C@@H]3O[C@H]1C[C@H](N)[C@H](O)[C@H](C)O1 [Compound 28, daunomycin, reference compound]					Optimum Dose [3]: 3.2 mg/kg; Maximum Effect T/C [3]: 154
mitomycin C [Compound 16, reference compound]	3.2 mg/kg	266	3.0 mg/kg/inj	143	
MMC Benzyl Carbamate [Compound 17]	12.8 mg/kg	144	4.8 mg/kg/inj	96	antitumor activity [2]: little activity
Benzyl Carbamate Disulfide [Compound 12]					stability in buffered aqueous methanol ([4]; aqueous methanol buffered between pH 6 to 8, no reducing agent): stable for several days; release of p-nitroaniline upon treatment with dithiothreitol ([4]; dithiothreitol, uv/vis and HPLC): p-nitroaniline was released
